# Source: ChEMBL document CHEMBL1130470, “Novel inhibitors of the prenylated protein methyltransferase reveal distinctive structural requirements” (Bioorg Med Chem Lett, 1997)
# Assay: In vitro inhibitory activity against prenylated protein methyltransferase (PPMTase), activity expressed as Ki(inhibitory constant)
# Parameters: species or system Rattus norvegicus
row,SMILES,Ki
1,CC(C)=CCC/C(C)=C/CC/C(C)=C/CSc1cc(F)ccc1C(=O)O,23 µM
2,CC(C)=CCC/C(C)=C/CC/C(C)=C/CSc1ccc(Cl)cc1C(=O)O,8.5 µM
3,CC(C)=CCC/C(C)=C/CC/C(C)=C/CSc1c(Cl)cccc1C(=O)O,> 50 µM
4,CC(C)=CCC/C(C)=C/CC/C(C)=C/CSc1cc(Cl)ccc1C(=O)O,28 µM

# Second part, the molecule after the results:
row,Ki,SMILES
1,> 50 µM,CC(C)=CCC/C(C)=C/CC/C(C)=C/CC/C(C)=C/CSc1ccccc1C(=O)O
2,> 50 µM,CC(C)=CCC/C(C)=C/CSc1ccccc1C(=O)O
3,6.3 µM,CC(C)=CCC/C(C)=C/CC/C(C)=C/CSc1ccc(F)cc1C(=O)O
4,2.8 µM,CC(C)=CCC/C(C)=C/CC/C(C)=C/CSc1ccccc1C(=O)O [SALIRASIB]
5,> 50 µM,COC(=O)c1ccccc1SC/C=C(\C)CC/C=C(\C)CCC=C(C)C
